Results reported in ChEMBL document CHEMBL1152752, “Chemical components and its antioxidant properties in vitro: an edible marine brown alga, Ecklonia cava” (Bioorg Med Chem, 2009).
Activity calls are given as the source filed them. The calls are words filed in the database; no cut-off is given here.

Columns and labels:
[1] = Antioxidant activity assessed as Fenton system generated hydroxyl radical scavenging activity by ESR spectrometer; format: functional
[2] = Antioxidant activity assessed as superoxide radical scavenging activity; format: functional
RAW264.7 [3] = test: Antioxidant activity against mouse RAW264.7 cells assessed as reduction of ROS production measured by fluorescent dichlorofluorescein using DCFH-DA substrate; format: functional, cell-based
[4] = system: Radical scavenging activity; test: Antioxidant activity assessed as DPPH radical scavenging activity; format: functional
[5] = Antioxidant activity assessed as […] generated peroxyl radical scavenging formation by ESR spectrometer; format: functional
RAW264.7 [6] = test: Antioxidant activity against mouse RAW264.7 cells assessed as reduction of ROS production after 200 mins measured by fluorescent dichlorofluorescein using DCFH-DA substrate; format: functional, cell-based; conditions: TDE = time-dependent effect
MRC5 = test: Cytotoxicity against human MRC5 cells at 100 uM after 24 hrs by MTT assay; format: cell-based; conditions: mrc5, 24 h
RAW264.7 [7] = test: Inhibition of Fe(2+)/H2O2-generated hydroxyl radical induced membrane protein oxidation in mouse RAW264.7 cells at 1 uM to 50 uM relative to control; format: functional
RAW264.7 [8] = test: Cytotoxicity against mouse RAW264.7 cells at 100 uM after 24 hrs by MTT assay; format: functional, cell-based
HL-60 = test: Cytotoxicity against human HL60 cells at 100 uM after 24 hrs by MTT assay; format: functional, cell-based
[9] = target: T1, Myeloperoxidase (Homo sapiens) (UniProt P05164); test: Inhibition of MPO activity in TNF-alpha-stimulated human HL60 cells measured enzyme activity per 10^6 cells by spectrophotometrically; format: cell-based; conditions: HL-60
T1 sequence (whole entry): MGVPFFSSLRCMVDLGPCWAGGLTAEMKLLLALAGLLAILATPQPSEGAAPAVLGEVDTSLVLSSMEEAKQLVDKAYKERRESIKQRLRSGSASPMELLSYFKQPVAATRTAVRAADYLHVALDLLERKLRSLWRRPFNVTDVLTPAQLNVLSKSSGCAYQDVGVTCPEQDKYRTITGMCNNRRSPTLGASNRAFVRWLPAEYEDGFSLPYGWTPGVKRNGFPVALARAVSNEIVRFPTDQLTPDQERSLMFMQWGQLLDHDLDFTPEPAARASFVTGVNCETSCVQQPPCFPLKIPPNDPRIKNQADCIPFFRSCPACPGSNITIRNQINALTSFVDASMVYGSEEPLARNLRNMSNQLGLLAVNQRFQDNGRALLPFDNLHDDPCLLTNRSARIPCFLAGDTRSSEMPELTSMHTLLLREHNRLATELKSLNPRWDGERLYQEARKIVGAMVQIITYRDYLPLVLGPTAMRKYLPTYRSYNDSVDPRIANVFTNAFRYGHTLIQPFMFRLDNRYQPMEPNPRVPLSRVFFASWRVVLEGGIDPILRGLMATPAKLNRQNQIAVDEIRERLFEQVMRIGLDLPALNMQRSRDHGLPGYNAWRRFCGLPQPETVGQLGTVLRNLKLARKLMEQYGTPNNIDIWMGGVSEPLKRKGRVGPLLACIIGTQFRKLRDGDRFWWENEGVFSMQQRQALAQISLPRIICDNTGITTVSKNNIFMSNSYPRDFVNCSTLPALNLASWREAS

[10] = target: T1, Myeloperoxidase (Homo sapiens); test: Inhibition of MPO activity in TNF-alpha-stimulated human HL60 cells measured enzyme activity per 10^6 cells at 10 uM by spectrophotometrically; format: cell-based; conditions: HL-60
[11] = target: T1, Myeloperoxidase (Homo sapiens); test: Inhibition of MPO activity in TNF-alpha-stimulated human HL60 cells measured enzyme activity per 10^6 cells at 50 uM by spectrophotometrically; format: cell-based; conditions: HL-60
RAW264.7 [12] = test: Antioxidant activity against mouse RAW264.7 cells assessed as reduction of ROS production at 1 uM after 200 mins measured by fluorescent dichlorofluorescein using DCFH-DA substrate; format: functional, cell-based
RAW264.7 [13] = test: Increase in intracellular GSH level in mouse RAW264.7 cells assessed as monobromobimane-GSH fluorescence intensity at 20 uM after 120 mins; format: functional, cell-based
RAW264.7 [14] = test: Antioxidant activity against mouse RAW264.7 cells assessed as reduction of ROS production at 50 uM after 200 mins measured by fluorescent dichlorofluorescein using DCFH-DA substrate; format: functional, cell-based
RAW264.7 [15] = test: Antioxidant activity against mouse RAW264.7 cells assessed as reduction of ROS production at 50 uM after 210 mins measured by fluorescent dichlorofluorescein using DCFH-DA substrate; format: functional; set-up: scale not given: the % may be the effect or the level left

SMILES | IC50 [1] [µM] | IC50 [2] [µM] | Activity (RAW264.7 [3]) | IC50 [4] [µM] | IC50 [5] [µM] | Activity (RAW264.7 [6]) | Activity (MRC5) | Activity (RAW264.7 [7]) | Activity (RAW264.7 [8]) | Activity (HL-60) | Activity [9] | Activity [10] [IU] | inhibition (INH) (RAW264.7 [7]) [%] | Activity [11] [IU] | Activity (RAW264.7 [12]) | Activity (RAW264.7 [13]) | Activity (RAW264.7 [14]) | Activity (RAW264.7 [15]) [%]
Oc1cc(O)cc(Oc2c(O)cc(O)c3c2Oc2c(O)cc(Oc4c(O)cc(O)cc4O)cc2O3)c1 | 39.6 | 21.9 | Dose-dependent effect | 18.6 | 22.7 | tde | Non-toxic | Active | inactive | inactive |  |  |  |  |  |  |  | 
Oc1cc(O)cc(Oc2c(O)cc(O)c3c2Oc2c(O)cc(O)c(-c4c(O)cc(O)c5c4Oc4c(O)cc(O)c(Oc6cc(O)cc(O)c6)c4O5)c2O3)c1 | 29.7 | 15.9 | Dose-dependent effect | 8.69 | 17.1 | tde | Non-toxic |  | inactive | inactive | Dose-dependent effect | 0.53 | 67.3 | 0.47 | Active | Active | Active | 83.58
Oc1cc(O)cc(Oc2c(O)cc(O)c3c2Oc2c(O)cc(Oc4c(O)cc(Oc5c(O)cc(O)c6c5Oc5c(O)cc(O)cc5O6)cc4O)cc2O3)c1 [DIECKOL] | 28.6 | 16.2 | Dose-dependent effect | 8.28 | 14.5 | tde | Non-toxic |  | inactive | inactive | Dose-dependent effect | 0.51 | 70.5 | 0.45 | Active | Active | Active | 84.27
Oc1cc(O)cc(Oc2c(O)cc(O)c3c2Oc2c(O)cc(O)cc2O3)c1 [ECKOL] | 51.8 | 26.5 |  | 22.9 | 28.4 |  | Non-toxic |  | inactive | inactive |  |  |  |  |  |  |  | 
Oc1cc(O)c(Oc2cc(O)cc(O)c2Oc2cc(O)cc(O)c2-c2c(O)cc(O)cc2O)c(O)c1 [FUCODIPHLOROETHOL G] | 33.5 | 18.6 | Dose-dependent effect | 14.7 | 18.1 | tde | Non-toxic |  | inactive | inactive |  |  |  |  |  | Active | Active | 75.6
Oc1cc(O)cc(Oc2c(O)cc(O)c3c2Oc2c(O)cc4oc5c(Oc6cc(O)cc(O)c6)c(O)cc(O)c5c4c2O3)c1 [PHLOROFUCOFUROECKOL A] | 39.2 | 21.6 | Dose-dependent effect | 17.7 | 21.4 | tde | Non-toxic | Active | inactive | inactive |  |  |  |  |  |  |  | 
Oc1cc(O)cc(O)c1 [PHLOROGLUCINOL] | 392 | 115 |  |  | 129 |  | Non-toxic |  | inactive | inactive |  |  |  |  |  |  |  | 
